Measured values published in patent US11524077B2, “Orally active, cell-penetrating homing peptide and methods using same” (Vascular BioSciences, priority 2012, dated 2022).
Bridge positions count the residues as written; N and C are the ends. Ends that are not written are not given here. Peptide text beside a SMILES is read from it.

Legend:
[1] = test system: trypsin; test: trypsin digest time-course experiment with mass spectrometry analysis; format: in vitro ADME; conditions: trypsin in Krebbs buffer, 24° C., 0-120 minutes
Source text: In an effort to further understand the oral availability of cyclic CAR peptide, we tested the stability of cyclic CAR (cCAR) and linear CAR in the presence of trypsin, a serine protease that is one of the primary enzymes found in the digestive system of vertebrates. Trypsin selectively cleaves peptide chains at the carboxyl side of the basic residues lysine and arginine, yielding a potentially wide variety of peptide fragments.
We conducted a trypsin proteolysis time course experiment, and tested cCAR and linear CAR (cyclic CAR that lacks the disulfide bond between adjacent cysteine residues and has a linear structure) in the presence of a trypsin solution.
For the digest time course experiment, the cCAR peptide sample was prepared by dissolving cCAR in Krebbs buffer (670 μM CAR), and the trypsin digest solution was prepared by adding trypsin to Krebbs buffer as well (0.1 μg/μL Trypsin). 15 μL CAR (670 μM) was added to 40 μL trypsin solution (0.1 μg/μL) and 75 μL Krebbs buffer. The reaction was allowed to proceed at 24° C. for different time periods of time. The reactions were quenched with 20 μL formic acid (500 μM) at different time points to stop trypsin from degrading any further peptide substrate. These steps were performed repeatedly for multiple time points (t=0, 5, 10, 15, 20, 30, 60, 120 minutes) for both cCAR and linear CAR. The different time point samples were desalted and analyzed using mass spectrometry.

[2] = test system: severe occlusive PAH rats (SU5416/Hx/Nx-exposed); test: hemodynamic effect of oral CAR 3 hours prior to i.v. imatinib in severe occlusive rat model of PAH; format: in vivo
Procedure: Anesthetized severe occlusive PAH rats were then catheterized in the right jugular vein for measurement of right ventricular systolic pressure (RVSP), the right carotid artery and advanced into the aorta for the measurement of systemic pressure (SAP) and the left jugular vein for drug administration.
Values are means±SE. N=3 without CAR and N=5 with CAR *p<0.05 vs. without CAR.
Recently we sought to explore the hemodynamic effect of orally administering 20 mg/kg of CAR 3 hours prior to i.v. administration of imatinib at doses of 5 mg/kg and 20 mg/kg in a severe occlusive rat model of PAH. Rats were first orally syringe fed a mixture of 20 mg/Kg CAR in a 10% sucrose solution 3 hours prior to anesthetization and assessment of the hemodynamic effects of i.v. administration of 5 mg/kg imatinib followed 20 minutes later by i.v. administration of 20 mg/kg of imatinib (FIG. 1).

[3] = co-administered with the Rho-kinase inhibitor fasudil; cited from earlier work
[4] = test system: SU/Hx/Nx rats with severe occlusive model PAH; test: sublingual CAR +/- imatinib or sildenafil in rats with severe occlusive model PAH; format: in vivo, rat; conditions: CAR 3 mg/kg sublingual; i.v. bolus imatinib or sildenafil; RVSP and SAP
Procedure: (A) a pulmonary artery with medial thickening, (B) a small pulmonary artery with neointimal occlusion, (C) spleen, (D) liver, and (E) kidney from a SU/Hx/Nx rat. […] Effects of CAR (3 mg/kg, sublingual) on intravenous (bolus) imatinib (F)- and sildenafil (G)- induced reductions in right ventricular systolic pressure (RVSP) and systemic arterial pressure (SAP) in SU/Hx/Nx rats. Values are means±SE. N=4-6. *p<0.05 with (solid line) vs. without (dashed line) CAR.
CAR was administered sublingually at a dosing of 3 mg/kg. The administration was performed in six rats with severe occlusive model PAH via dropper sublingually. The administration was +/− imatinib or +/− sildenafil.

[5] = test system: pulmonary hypertensive arteries; conditions: monocrotaline (MCT) and SU5416/Hypoxia/Normoxia severe occlusive rat models of PAH; cited from earlier work
[6] = imatinib i.v. 20 mg/kg, 3 hours after oral CAR 20 mg/kg, severe occlusive PAH rats

| Compound | outcome of trypsin digest (stability in words) [1] | resistance to trypsin digestion relative to cCAR [1] | resistance to trypsin digestion relative to linear CAR [1] | adjuvant activity after oral administration ([2]; 3 hours after oral CAR 20 mg/kg in 10% sucrose, i.v. imatinib) | change in systemic arterial pressure (SAP) [2, 6] | reduction in right ventricular systolic pressure (RVSP) [2, 6] [%] | vasodilation when co-administered with fasudil [3] | effect on action of co-administered drugs [4] | homing to pulmonary hypertensive arteries [5] |
| --- | --- | --- | --- | --- | --- | --- | --- | --- | --- |
| C[C@H](NC(=O)[C@@H]1CSSC[C@H](NC(=O)[C@H](CC(=O)O)NC(=O)[C@H](CCCCN)NC(=O)[C@H](CC(N)=O)NC(=O)[C@H](CCCCN)NC(=O)[C@@H](N)CO)C(=O)N1)C(=O)N[C@@H](CCCNC(=N)N)C(=O)O [SEQ ID NO: 5, SKNKDCCAR] (H-SKNKDCCAR-OH; disulfide 6-7; N-terminus and C-terminus assumed) | largely resistant to further degradation by trypsin | approximately 10 fold | approximately 100 fold |  |  |  |  |  |  |
| C[C@H](NC(=O)[C@@H](N)CS)C(=O)N[C@@H](CCCNC(=N)N)C(=O)N[C@@H](CO)C(=O)N[C@@H](CCCCN)C(=O)N[C@@H](CC(N)=O)C(=O)N[C@@H](CCCCN)C(=O)N[C@@H](CC(=O)O)C(=O)N[C@@H](CS)C(=O)O [linear CAR] (H-CARSKNKDC-OH; N-terminus and C-terminus assumed) | quickly digested by trypsin into its constituent amino acids |  |  |  |  |  |  |  |  |
| CARSKNKDC (disulfide 1-9 (inferred)) [cell-penetrating homing peptide] | yielded one predominant product that persisted over the time course of the experiment |  |  | displayed pulmonary selective adjuvant activity | no change | 18 | acute pulmonary selective vasodilation | can facilitate the selective action of co-administered drugs at the site of the disease | shown to home to pulmonary hypertensive arteries |
